Measurements published in US20170275298A1, “INHIBITORS OF THE RENAL OUTER MEDULLARY POTASSIUM CHANNEL” (Merck Sharp & Dohme Corp., priority 2014, published 2017).

What follows are molecules tested against T1, hROMK (hKir1.1) (Homo sapiens, UniProt P48048) (assay: Thallium Flux Assay (ROMK channel functional thallium flux assay)). Conditions: HEK293 cells stably expressing hROMK (hKir1.1); FluxOR thallium flux, FLIPR-Tetra, 30 min compound incubation; read-out: ROMK TI IC50.
T1 construct: expressed in transfected cells
T1 sequence (P48048 1-391): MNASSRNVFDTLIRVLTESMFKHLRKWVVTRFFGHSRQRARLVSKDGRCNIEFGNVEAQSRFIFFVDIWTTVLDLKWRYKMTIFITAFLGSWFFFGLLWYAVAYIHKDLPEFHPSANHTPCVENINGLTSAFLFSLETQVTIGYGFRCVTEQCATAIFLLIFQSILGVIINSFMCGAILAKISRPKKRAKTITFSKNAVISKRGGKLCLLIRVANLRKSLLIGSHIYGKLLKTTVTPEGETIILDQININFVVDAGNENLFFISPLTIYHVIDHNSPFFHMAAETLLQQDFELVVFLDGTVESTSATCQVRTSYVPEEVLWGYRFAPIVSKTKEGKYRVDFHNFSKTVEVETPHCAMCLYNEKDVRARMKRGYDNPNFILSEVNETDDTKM
Format: cell-based
Procedure: The following Thallium Flux Assay was performed on each of the final product compounds in the Examples.
HEK293 cells stably expressing hROMK (hKir1.1) were grown at 37° C. in a 10% CO2 humidified incubator in complete growth media: Dulbecco's Modified Eagle Medium supplemented with non-essential amino acids, Penicillin/Streptomycin/Glutamine, G418 and FBS. At >80% confluency, the media was aspirated from the flask and rinsed with 10 mL calcium/magnesium-free PBS. […] To dislodge the cell, the side of the flask was gently banged with one's hand. The cells completely titrated and then the cells were transferred to 25 mL complete media, centrifuged at 1,500 rpm for 6 min followed by resuspension in complete growth media and determine cell concentration. […] Under ideal growth conditions and appropriate tissue culture practices, this cell line is stable for 40-45 passages.
• FluxOR™ Reagent (Component A) • FluxOR™ Assay Buffer (Component B)—10× Concentrate • PowerLoad™ Concentrate (Component C)—100× Concentrate • Probenecid (Component D)—Lyophilized sample is kept at −20° C. Water soluble, 100× after solubilization in 1 mL water. […] Store at 4° C. • Thallium sulfate (Tl2SO4) Concentrate (Component G)—50 mM in water. Store at 4° C. • DMSO (dimethyl sulfoxide, Component H)—1 mL (100%)
Can be stored at room temperature • Stimulant Buffer (prepared at 5× final concentration in 1×FluxOR™ Chloride-Free Buffer): 7.5 mM thallium sulfate and 0.75 mM potassium sulfate (to give a final assay concentration of 3 mM Thallium/0.3 mM potassium). Store at 4° C. when not in use. If kept sterile, this solution is good for months.
The ROMK channel functional thallium flux assay was performed in 384 wells, using the FLIPR-Tetra instrument. HEK-hKir1.1 cells were seeded in Poly-D-Lysine microplates and kept in a 37° C.-10% CO2 incubator overnight. On the day of the experiment, the growth media was replaced with the FluxOR™ reagent loading buffer and incubated, protected from light, at ambient temperature (23-25° C.) for 90 min. The loading buffer was replaced with assay buffer±test compound followed by 30 min incubation at ambient temperature, where the thallium/potassium stimulant was added to the microplate.
1. Seed HEK-hKir1.1 cells (50 μl at 20,000 cells/well) in 384-well PDL coated Microplates 2. Allow cells to adhere overnight in humidified 37° C./10% CO2 incubator 3. Completely remove cell growth media from microplate and replace with 25 μl loading buffer 4. Incubate Microplate at room temperature, protected form light, for 90 min 5. Remove loading buffer and replace with 25 μl 1× Assay Buffer±test compound. 6. Incubate microplate at room temperature, protected from light, for 30 min 7. […] Excitation=400 nm, Emission=460 & 580 nm. Collect data for ˜10 min.
The fluorescence intensity of wells containing 3 μM of a standard control ROMK inhibitor of the present invention was used to define the ROMK-sensitive component of thallium flux. Fluorescence in the presence of test compounds was normalized to control values to provide % fluorescence change.

Point of comparison: Cc1c([C@@H](O)CN2CCC3(CC2)CCN(c2cnccn2)C3=O)ccc2c1COC2=O [Example 25, (R)-8-(2-hydroxy-2-(4-methyl-1-oxo-1,3-dihydroisobenzofuran-5-yl)ethyl)-2-(pyrazin-2-yl)-2,8-diazaspiro[4.5]decan-1-one], IC50 437 nM. Against it:
- COc1cc(N2CCOC3(CCN(C[C@H](O)c4ccc5c(c4C)COC5=O)CC3)C2=O)ccn1 [Example 23, (R)-9-(2-hydroxy-2-(4-methyl-1-oxo-1,3-dihydroisobenzofuran-5-yl)ethyl)-4-(2-methoxypyridin-4-yl)-1-oxa-4,9-diazaspiro[5.5]undecan-5-one] — within 1.5-fold, 407 nM
- COc1nccc(N2CCOC3(CCN(C[C@H](O)c4ccc5c(c4C)COC5=O)CC3)C2=O)n1 [Example 24, (R)-9-(2-hydroxy-2-(4-methyl-1-oxo-1,3-dihydroisobenzofuran-5-yl)ethyl)-4-(2-methoxypyrimidin-4-yl)-1-oxa-4,9-diazaspiro[5.5]undecan-5-one] — 14-fold lower, 30.2 nM
- Cc1c([C@@H](O)CN2CCC3(CC2)OCCN(c2ccncc2)C3=O)ccc2c1COC2=O [Example 26, (R)-9-(2-hydroxy-2-(4-methyl-1-oxo-1,3-dihydroisobenzofuran-5-yl)ethyl)-4-(pyridin-4-yl)-1-oxa-4,9-diazaspiro[5.5]undecan-5-one] — 1.8-fold lower, 238 nM
- COc1nsc(N2CCOC3(CCN(C[C@H](O)c4ccc5c(c4C)COC5=O)CC3)C2=O)n1 [Example 27, (R)-9-(2-hydroxy-2-(4-methyl-1-oxo-1,3-dihydroisobenzofuran-5-yl)ethyl)-4-(3-methoxy-1,2,4-thiadiazol-5-yl)-1-oxa-4,9-diazaspiro[5.5]undecan-5-one] — 17-fold lower, 25 nM
- Cc1nsc(N2CCOC3(CCN(C[C@H](O)c4ccc5c(c4C)COC5=O)CC3)C2=O)n1 [Example 28, (R)-9-(2-hydroxy-2-(4-methyl-1-oxo-1,3-dihydroisobenzofuran-5-yl)ethyl)-4-(3-methyl-1,2,4-thiadiazol-5-yl)-1-oxa-4,9-diazaspiro[5.5]undecan-5-one] — 3.6-fold lower, 123 nM
- Cc1c([C@@H](O)CN2CCC3(CCCN(c4ccc(=O)n(C)n4)C3=O)CC2)ccc2c1COC2=O [Example 29, (R)-9-(2-hydroxy-2-(4-methyl-1-oxo-1,3-dihydroisobenzofuran-5-yl)ethyl)-2-(1-methyl-6-oxo-1,6-dihydropyridazin-3-yl)-2,9-diazaspiro[5.5]undecan-1-one] — 3-fold lower, 145 nM
- Cc1c([C@@H](O)CN2CCC3(CC2)CC(=O)N(c2ccc(=O)n(C)n2)C3)ccc2c1COC2=O [Example 30, (R)-8-(2-hydroxy-2-(4-methyl-1-oxo-1,3-dihydroisobenzofuran-5-yl)ethyl)-2-(1-methyl-6-oxo-1,6-dihydropyridazin-3-yl)-2,8-diazaspiro[4.5]decan-3-one] — 4.6-fold lower, 95.1 nM
- COc1nccc(N2CC3(CCN(C[C@H](O)c4ccc5c(c4C)COC5=O)CC3)CC2=O)n1 [Example 31, (R)-8-(2-hydroxy-2-(4-methyl-1-oxo-1,3-dihydroisobenzofuran-5-yl)ethyl)-2-(2-methoxypyrimidin-4-yl)-2,8-diazaspiro[4.5]decan-3-one] — 2.9-fold lower, 153 nM
- Cc1c([C@@H](O)CN2CCC3(CC2)CCN(c2ccc(OC(F)(F)F)cc2)C3=O)ccc2c1COC2=O [Example 32, (R)-8-(2-hydroxy-2-(4-methyl-1-oxo-1,3-dihydroisobenzofuran-5-yl)ethyl)-2-(4-(trifluoromethoxy)phenyl)-2,8-diazaspiro[4.5]decan-1-one] — within 1.5-fold, 465 nM
- Cc1c([C@@H](O)CN2CCC3(CC2)CCN(c2ccc(C(F)F)nc2)C3=O)ccc2c1COC2=O [Example 33, (R)-2-(6-(difluoromethyl)pyridin-3-yl)-8-(2-hydroxy-2-(4-methyl-1-oxo-1,3-dihydroisobenzofuran-5-yl)ethyl)-2,8-diazaspiro[4.5]decan-1-one] — 6.9-fold lower, 63.1 nM
- Cc1c([C@@H](O)CN2CCC3(CC2)CCN(c2cc(-c4ccccc4)no2)C3=O)ccc2c1COC2=O [Example 34, (R)-8-(2-hydroxy-2-(4-methyl-1-oxo-1,3-dihydroisobenzofuran-5-yl)ethyl)-2-(3-phenylisoxazol-5-yl)-2,8-diazaspiro[4.5]decan-1-one] — within 1.5-fold, 505 nM
- Cc1c([C@@H](O)CN2CCC3(CC2)CCN(c2cccnc2)C3=O)ccc2c1COC2=O [Example 35, (R)-8-(2-hydroxy-2-(4-methyl-1-oxo-1,3-dihydroisobenzofuran-5-yl)ethyl)-2-(pyridin-3-yl)-2,8-diazaspiro[4.5]decan-1-one] — within 1.5-fold, 379 nM
- COc1ccc(N2CCC3(CCN(C[C@H](O)c4ccc5c(c4C)COC5=O)CC3)C2=O)nn1 [Example 36, (R)-8-(2-hydroxy-2-(4-methyl-1-oxo-1,3-dihydroisobenzofuran-5-yl)ethyl)-2-(6-methoxypyridazin-3-yl)-2,8-diazaspiro[4.5]decan-1-one] — within 1.5-fold, 393 nM
- Cc1c([C@@H](O)CN2CCC3(CC2)CCN(c2cncnc2)C3=O)ccc2c1COC2=O [Example 37, (R)-8-(2-hydroxy-2-(4-methyl-1-oxo-1,3-dihydroisobenzofuran-5-yl)ethyl)-2-(pyrimidin-5-yl)-2,8-diazaspiro[4.5]decan-1-one] — 1.5-fold higher, 676 nM
- Cc1c([C@@H](O)CN2CCC3(CC2)CCN(c2cncc(F)c2)C3=O)ccc2c1COC2=O [Example 38, (R)-2-(5-fluoropyridin-3-yl)-8-(2-hydroxy-2-(4-methyl-1-oxo-1,3-dihydroisobenzofuran-5-yl)ethyl)-2,8-diazaspiro[4.5]decan-1-one] — 5.3-fold lower, 82.5 nM
- [2H]C([2H])([2H])Oc1nccc(N2CCC3(CCN(C[C@H](O)c4ccc5c(c4C)COC5=O)CC3)C2=O)n1 [Example 39, (R)-8-(2-hydroxy-2-(4-methyl-1-oxo-1,3-dihydroisobenzofuran-5-yl)ethyl)-2-(2-methoxypyrimidin-4-yl)-2,8-diazaspiro[4.5]decan-1-one (methoxy-d3)] — 11-fold lower, 38.8 nM
- COc1ncc(N2CCC3(CCN(C[C@H](O)c4ccc5c(c4C)COC5=O)CC3)C2=O)cn1 [Example 40, (R)-8-(2-hydroxy-2-(4-methyl-1-oxo-1,3-dihydroisobenzofuran-5-yl)ethyl)-2-(2-methoxypyrimidin-5-yl)-2,8-diazaspiro[4.5]decan-1-one] — 3.1-fold lower, 142 nM
- Cc1nccc(N2CCC3(CCN(C[C@H](O)c4ccc5c(c4C)COC5=O)CC3)C2=O)n1 [Example 41, (R)-8-(2-hydroxy-2-(4-methyl-1-oxo-1,3-dihydroisobenzofuran-5-yl)ethyl)-2-(2-methylpyrimidin-4-yl)-2,8-diazaspiro[4.5]decan-1-one] — 2.3-fold lower, 193 nM
- COc1cc(N2CCC3(CCN(C[C@H](O)c4ccc5c(c4C)COC5=O)CC3)C2=O)nc(OC)n1 [Example 42, (R)-2-(2,6-dimethoxypyrimidin-4-yl)-8-(2-hydroxy-2-(4-methyl-1-oxo-1,3-dihydroisobenzofuran-5-yl)ethyl)-2,8-diazaspiro[4.5]decan-1-one] — 1.9-fold higher, 842 nM
- Cc1c([C@@H](O)CN2CCC3(CC2)CCN(c2ccnc(N(C)C)n2)C3=O)ccc2c1COC2=O [Example 43, (R)-2-(2-(dimethylamino)pyrimidin-4-yl)-8-(2-hydroxy-2-(4-methyl-1-oxo-1,3-dihydroisobenzofuran-5-yl)ethyl)-2,8-diazaspiro[4.5]decan-1-one] — within 1.5-fold, 521 nM
- CCOc1nccc(N2CCC3(CCN(C[C@H](O)c4ccc5c(c4C)COC5=O)CC3)C2=O)n1 [Example 44, (R)-2-(2-ethoxypyrimidin-4-yl)-8-(2-hydroxy-2-(4-methyl-1-oxo-1,3-dihydroisobenzofuran-5-yl)ethyl)-2,8-diazaspiro[4.5]decan-1-one] — 6.6-fold lower, 66.6 nM
